Reference: PMC8659279, “Identification of a Novel Delta Opioid Receptor Agonist Chemotype with Potential Negative Allosteric Modulator Capabilities” (Molecules, 2021)
Like-named read-outs stand apart in the source and are kept apart here.

How the values were obtained:
[1] = cited from earlier work
[2] = target: T1, δOR (Homo sapiens, UniProt P41143); assay: PathHunter β-arrestin 2 recruitment, CHO-human δOR cells; format: cell-based; settings: read-out: β-ARR2 potency (pEC50) (converted)
[3] = target: T2, κOR (Homo sapiens, UniProt P41145); assay: Radioligand binding assay with [3H]U69,593; settings: read-out: Affinity (pKi ± SEM) (converted)
[4] = target: T1, δOR; assay: Radioligand binding assay with [3H]DPDPE
[5] = target: T3, δOR (Mus musculus, UniProt P32300); assay: GloSensor cAMP inhibition assay (forskolin-induced cAMP) in HEK 293 cells; format: cell-based
T3 construct: FLAG; expressed in transfected cells; host or cells: HEK 293

[6] = target: T3, δOR; assay: Assessment of allosteric modulation of Leu-enkephalin in δOR glosensor cAMP assay; format: cell-based
[7] = target: T2, κOR; assay: GloSensor cAMP inhibition assay (forskolin-induced cAMP); format: cell-based; settings: read-out: cAMP Potency (pIC50 ± SEM) (converted)
[8] = target: µOR (Mus musculus, UniProt P42866); assay: GloSensor cAMP inhibition assay (forskolin-induced cAMP) in HEK 293 cells; format: cell-based; settings: read-out: cAMP Potency (pIC50 ± SEM) (converted)
[9] = target: T1, δOR; assay: PathHunter β-arrestin 1 recruitment, U2OS cells (also library screen); format: cell-based; settings: read-out: β-ARR1 potency (pEC50) (converted)
[10] = target: T4, µOR (Homo sapiens, UniProt P35372); assay: Radioligand binding assay with [3H]DAMGO; settings: read-out: Affinity (pKi ± SEM) (converted)
[11] = target: T1, δOR; parameters: method as in PMID 26507558, PMID 20850307, doi:10.1016/S0021-5198(19)49890-9; settings: ref [14],[18],[19]; cited from earlier work
[12] = target: T4, µOR; parameters: method as in PMID 27533032; settings: ref [32]; read-out: affinity at the µOR; cited from earlier work
[13] = target: T2, κOR; parameters: method as in PMID 28339199; settings: ref [36]; read-out: affinity at the κOR; cited from earlier work
[14] = target: T2, κOR; parameters: method as in PMID 28339199; settings: ref [36]; read-out: potency at the κOR; cited from earlier work
[15] = Table 2, three or more independent trials, read-out: pIC50 ± SEM to inhibit cAMP signaling at δOR (converted)

T1 sequence (P41143 whole entry): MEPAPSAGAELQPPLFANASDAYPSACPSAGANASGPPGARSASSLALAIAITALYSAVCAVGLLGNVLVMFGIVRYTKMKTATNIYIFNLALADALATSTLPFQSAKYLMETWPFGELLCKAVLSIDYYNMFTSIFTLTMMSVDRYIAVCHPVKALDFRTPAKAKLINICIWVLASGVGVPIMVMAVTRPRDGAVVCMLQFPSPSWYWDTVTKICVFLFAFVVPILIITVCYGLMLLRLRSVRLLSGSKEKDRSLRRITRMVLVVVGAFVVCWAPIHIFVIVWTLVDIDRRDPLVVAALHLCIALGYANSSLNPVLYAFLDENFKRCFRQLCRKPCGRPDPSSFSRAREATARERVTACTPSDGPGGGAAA
T2 sequence (P41145 whole entry): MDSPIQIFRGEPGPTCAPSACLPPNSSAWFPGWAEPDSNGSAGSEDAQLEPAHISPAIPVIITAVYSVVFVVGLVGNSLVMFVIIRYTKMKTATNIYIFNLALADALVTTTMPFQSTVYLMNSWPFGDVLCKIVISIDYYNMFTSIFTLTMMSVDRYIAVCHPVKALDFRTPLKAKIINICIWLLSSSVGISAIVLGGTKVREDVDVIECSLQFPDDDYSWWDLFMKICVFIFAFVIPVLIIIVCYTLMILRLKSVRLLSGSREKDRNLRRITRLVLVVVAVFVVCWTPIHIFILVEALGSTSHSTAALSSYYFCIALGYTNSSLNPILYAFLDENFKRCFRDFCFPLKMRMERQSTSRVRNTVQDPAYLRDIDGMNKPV
T3 sequence (P32300 whole entry): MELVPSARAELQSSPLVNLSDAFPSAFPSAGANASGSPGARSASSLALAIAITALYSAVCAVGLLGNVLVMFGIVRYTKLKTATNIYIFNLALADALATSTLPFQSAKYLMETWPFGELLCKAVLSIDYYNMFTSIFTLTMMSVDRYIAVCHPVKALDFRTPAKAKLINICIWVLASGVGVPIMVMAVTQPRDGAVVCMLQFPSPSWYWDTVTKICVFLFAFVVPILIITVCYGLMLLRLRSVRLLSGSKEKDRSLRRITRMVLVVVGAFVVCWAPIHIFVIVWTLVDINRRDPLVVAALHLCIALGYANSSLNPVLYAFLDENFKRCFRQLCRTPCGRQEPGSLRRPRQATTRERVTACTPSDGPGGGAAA
T4 sequence (P35372 whole entry): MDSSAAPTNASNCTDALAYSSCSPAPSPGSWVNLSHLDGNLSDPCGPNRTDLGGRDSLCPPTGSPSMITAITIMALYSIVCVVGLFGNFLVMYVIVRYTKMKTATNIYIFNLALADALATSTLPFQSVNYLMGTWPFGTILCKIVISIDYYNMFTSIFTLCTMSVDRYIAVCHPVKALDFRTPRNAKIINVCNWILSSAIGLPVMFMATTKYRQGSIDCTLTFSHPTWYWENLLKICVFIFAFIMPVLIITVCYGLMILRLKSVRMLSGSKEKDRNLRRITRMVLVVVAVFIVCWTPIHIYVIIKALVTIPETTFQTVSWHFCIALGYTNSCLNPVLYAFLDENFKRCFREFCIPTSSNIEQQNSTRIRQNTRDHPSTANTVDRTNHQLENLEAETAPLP
µOR (Mus musculus, UniProt P42866), sequence (P42866 whole entry): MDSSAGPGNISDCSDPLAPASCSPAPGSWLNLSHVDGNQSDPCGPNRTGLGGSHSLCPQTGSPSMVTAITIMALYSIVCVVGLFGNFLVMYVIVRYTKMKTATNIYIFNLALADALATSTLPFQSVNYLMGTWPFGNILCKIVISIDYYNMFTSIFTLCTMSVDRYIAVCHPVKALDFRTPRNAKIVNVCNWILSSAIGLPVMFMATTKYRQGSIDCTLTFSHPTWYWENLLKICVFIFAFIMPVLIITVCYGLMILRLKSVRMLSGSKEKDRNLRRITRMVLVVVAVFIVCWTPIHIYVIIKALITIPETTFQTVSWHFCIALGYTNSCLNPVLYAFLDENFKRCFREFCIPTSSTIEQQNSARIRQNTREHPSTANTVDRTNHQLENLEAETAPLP

For `CCN(CC)C(=O)c1ccc([C@H](c2cccc(N)c2)N2C[C@@H](C)N(Cc3ccc(F)cc3)C[C@@H]2C)cc1` [AZD2327], the proconvulsant effects ([1]; ref [8]) is listed as “proconvulsant effects”.

In the case of `COc1cccc(C=NNC(=O)c2cc(-c3cccs3)n[nH]2)c1O` [Compound 1, N’-(2-hydroxy-3-methoxybenzylidene)-3-(2-thienyl)-1H-pyrazole-5-carbohydrazide], the EC50 [2] is reported as greater than 10 µM, the Ki [3] is reported as greater than 10 µM and the “affinity and potency at δOR stronger than for µOR and κOR (selectivity)” value ([4]; δOR over µOR and κOR) is reported as “roughly 10 fold”. The Ki ([4]; δOR, read-out: Affinity (pKi ± SEM) (converted)) was 1.15 µM, the IC50 [5, 15] was 1 µM and the IC50 ([5]; δOR, read-out: cAMP Potency (pIC50 ± SEM) (converted)) was 0.977 µM. For the same compound, the “modulation of Leu-enkephalin activity in cAMP glosensor assay” value ([6]; Leu-enkephalin co-incubated with 0.1-10 µM compound 1) was “negative allosteric modulator (NAM)-agonist”, the “β (change in Leu-enkephalin Emax)” value ([6]; Leu-enkephalin co-incubated with increasing concentrations of compound 1) was 1 and the IC50 [7] was greater than 10 µM. For the same compound, the IC50 [8] was greater than 10 µM, the EC50 [9] was greater than 10 µM and the Ki [10] was greater than 10 µM.

`O=C(N/N=C/c1ccccc1)c1cc(-c2cccs2)n[nH]1` [Compound 2] gave an IC50 [5, 15] of 12.6 µM.

`Cc1cccc(/C=N/NC(=O)c2cc(-c3cccs3)n[nH]2)c1` [Compound 3] showed an IC50 [5, 15] of 7.94 µM.

`O=C(N/N=C/c1ccc(Cl)cc1)c1cc(-c2cccs2)n[nH]1` [Compound 4] showed an IC50 [5, 15] of 12.6 µM.

Work on `CCOc1cccc(/C=N/NC(=O)c2cc(-c3ccco3)n[nH]2)c1O` [Compound 5] yielded an IC50 [5, 15] of 10 µM.

Compound `O=C(N/N=C/c1ccc(O)c(O)c1)c1cc(-c2cccs2)n[nH]1` [Compound 6] has an IC50 [5, 15] of 12.6 µM.

For `COc1cc(/C=N/NC(=O)c2cc(-c3cccs3)n[nH]2)cc(OC)c1OC` [Compound 8], the IC50 [5, 15] was 10 µM.

Compound `COc1cccc(/C=N/NC(=O)c2cc(-c3cccs3)n[nH]2)c1` [Compound 9] has an IC50 [5, 15] of 15.8 µM.

Compound `CCOc1cccc(/C=N/NC(=O)c2cc(-c3ccc(Cl)s3)n[nH]2)c1O` [Compound 10] has an IC50 [5, 15] of 7.94 µM.

`COc1ccc(/C=N/NC(=O)c2cc(-c3ccc(C)s3)n[nH]2)cc1OC` [Compound 11] showed an IC50 [5, 15] of 3.98 µM.

With `COc1cccc(/C=N/NC(=O)c2cc(-c3ccco3)n[nH]2)c1O` [Compound 12] the IC50 [5, 15] was 7.94 µM.

`COc1cccc(/C=N/NC(=O)c2cc(-c3ccc(Cl)s3)n[nH]2)c1O` [Compound 13] showed an IC50 [5, 15] of 7.94 µM.

`COc1cccc(/C=N/NC(=O)c2cc(-c3ccc(Br)s3)n[nH]2)c1O` [Compound 14] showed an IC50 [5, 15] of 10 µM.

`COc1cc(/C=N/NC(=O)c2cc(-c3ccc(C)s3)n[nH]2)ccc1O` [Compound 15] showed an IC50 [5, 15] of 10 µM.

In the case of `CN1CCC23Cc4nc5ccccc5cc4CC2(O)C1Cc1ccc(O)cc13` (stereo not drawn) [KNT-127], the “Emax for β-arrestin 2 recruitment” value [11] is given as 70% and the convulsions ([1]; ref [14],[18],[19]) is given as “do not induce convulsions”.

For `CN(C)C(=O)c1ccc(C(=C2CCN(Cc3cncs3)CC2)c2cccc(C(N)=O)c2)cc1` [PN6047], the proconvulsant effects ([1]; ref [17]) is given as “not proconvulsant”.

In the case of `C[C@H](Cc1cccs1)NC(=O)NC[C@H](Cc1ccc(O)cc1)N(C)C` [PZM21], the Ki [12] is given as 0.001 µM.

In the case of `CN1CCC2(c3cccc(O)c3)Cc3nc4ccccc4cc3CC2C1` (stereo not drawn) [TAN-67], the “Emax for β-arrestin 2 recruitment” value [11] is listed as 30%.

For `CC(c1cccc(O)c1)N(C)CCc1nccn1C` (stereo not drawn) [compound 81], the Ki [13] is given as 0.16 µM and the EC50 [14] is given as 0.53 µM.
